Assay [1] deals with T1, SNAP-mGluR7(K319C) homodimer (Rattus norvegicus, UniProt P35400, K319C).
T1 construct: HA (N); made in house; host or cells: HEK293T
Nature of the assay: smFRET on SNAP-mGluR7(K319C) homodimers conjugated to D-MAG-0. The assay is classed as biochemical. As to the method:
smFRET was performed on purified SNAP-mGluR7(K319C) homodimers that were labeled with donor and acceptor dyes on the SNAP and D-MAG-0 on K319C in the D-MAG-0 activated state. […] Illumination was applied to the entire field of view using either a Polychrome V monochromator (TILL Photonics) through a 20× objective, or a Lambda DG4 high-speed wavelength switcher (Sutter Instruments) with 380 nm and 500 nm filters through a 40× objective. pClamp software was used for both data acquisition and control of illumination.
(§1) (100 ms time resolution).

In assay [2] the target is T2, CLIP-mGluR2/SNAP-mGluR7(K319C) heterodimer (Rattus norvegicus, UniProt P31421+P35400, K319C).
T2 construct: Flag (N); HA (N); made in house; host or cells: HEK293T
T2 sequence (P31421 19-872): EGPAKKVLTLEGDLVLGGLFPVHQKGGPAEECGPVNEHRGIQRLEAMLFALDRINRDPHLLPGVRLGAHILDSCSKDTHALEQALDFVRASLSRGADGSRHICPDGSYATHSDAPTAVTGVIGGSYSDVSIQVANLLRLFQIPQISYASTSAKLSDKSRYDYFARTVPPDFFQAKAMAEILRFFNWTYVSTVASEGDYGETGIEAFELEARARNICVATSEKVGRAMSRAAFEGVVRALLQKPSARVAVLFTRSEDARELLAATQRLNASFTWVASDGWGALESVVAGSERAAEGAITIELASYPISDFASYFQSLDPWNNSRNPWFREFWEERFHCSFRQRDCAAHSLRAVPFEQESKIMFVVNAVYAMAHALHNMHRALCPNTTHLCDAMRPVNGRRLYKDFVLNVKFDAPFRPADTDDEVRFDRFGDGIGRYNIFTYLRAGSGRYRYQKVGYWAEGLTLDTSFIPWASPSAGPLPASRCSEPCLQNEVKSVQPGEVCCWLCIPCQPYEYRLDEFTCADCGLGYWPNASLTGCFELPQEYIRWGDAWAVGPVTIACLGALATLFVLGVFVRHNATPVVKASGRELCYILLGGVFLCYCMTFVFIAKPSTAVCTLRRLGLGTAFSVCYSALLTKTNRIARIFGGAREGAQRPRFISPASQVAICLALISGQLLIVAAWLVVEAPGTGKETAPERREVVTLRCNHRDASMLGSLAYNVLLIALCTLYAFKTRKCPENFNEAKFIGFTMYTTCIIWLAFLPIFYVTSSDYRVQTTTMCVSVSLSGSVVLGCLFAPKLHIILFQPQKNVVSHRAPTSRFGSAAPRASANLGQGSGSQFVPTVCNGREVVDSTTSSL
T2 sequence (P35400 35-915 K319C): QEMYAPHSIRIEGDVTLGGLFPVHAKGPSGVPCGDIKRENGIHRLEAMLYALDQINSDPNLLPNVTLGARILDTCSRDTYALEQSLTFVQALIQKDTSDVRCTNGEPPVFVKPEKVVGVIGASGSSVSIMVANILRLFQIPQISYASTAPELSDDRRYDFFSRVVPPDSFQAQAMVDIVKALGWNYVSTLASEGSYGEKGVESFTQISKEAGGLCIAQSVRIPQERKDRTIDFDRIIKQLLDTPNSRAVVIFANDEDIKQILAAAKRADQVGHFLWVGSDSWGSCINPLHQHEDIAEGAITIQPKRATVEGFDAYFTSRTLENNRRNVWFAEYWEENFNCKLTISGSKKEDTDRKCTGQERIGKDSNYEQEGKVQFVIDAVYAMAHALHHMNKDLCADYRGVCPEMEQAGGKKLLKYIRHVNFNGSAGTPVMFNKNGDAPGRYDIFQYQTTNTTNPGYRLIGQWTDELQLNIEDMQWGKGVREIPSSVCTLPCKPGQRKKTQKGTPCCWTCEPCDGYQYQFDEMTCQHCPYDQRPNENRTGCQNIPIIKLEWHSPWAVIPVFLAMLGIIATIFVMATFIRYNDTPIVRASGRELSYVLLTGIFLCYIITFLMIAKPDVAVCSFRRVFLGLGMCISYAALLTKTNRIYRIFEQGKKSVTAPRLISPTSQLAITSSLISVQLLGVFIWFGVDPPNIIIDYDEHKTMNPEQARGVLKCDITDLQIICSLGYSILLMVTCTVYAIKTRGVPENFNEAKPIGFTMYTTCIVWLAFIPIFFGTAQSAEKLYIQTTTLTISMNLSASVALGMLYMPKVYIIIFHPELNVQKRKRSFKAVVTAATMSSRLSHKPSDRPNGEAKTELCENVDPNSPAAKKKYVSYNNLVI
Nature of the assay: smFRET on CLIP-mGluR2/SNAP-mGluR7(K319C) heterodimers with D-MAG-0 on mGluR7. The note with it: trans D-MAG-0 only on the mGluR7 subunit. The class given is biochemical.
From the text: (§2) Illumination was applied to the entire field of view using either a Polychrome V monochromator (TILL Photonics) through a 20× objective, or a Lambda DG4 high-speed wavelength switcher (Sutter Instruments) with 380 nm and 500 nm filters through a 40× objective. pClamp software was used for both data acquisition and control of illumination.
as §1

In assay [3] the target is CLIP-mGluR2/SNAP-mGluR7 heterodimer (mGluR2/7) (Rattus norvegicus, UniProt P31421+P35400). Nature of the assay: smFRET on isolated CLIP-mGluR2/SNAP-mGluR7 heterodimers. The note with it: for effect on smFRET distribution: 0 glutamate, combination of mGluR2 NAM (11 µM Ro 64-5229 or 1.2 µM MNI-137) with mGluR7 NAM ([…] ADX 71743).
Sequence of CLIP-mGluR2/SNAP-mGluR7 heterodimer (mGluR2/7) (P31421 19-872): as the sequence (P31421 19-872) above
Sequence of CLIP-mGluR2/SNAP-mGluR7 heterodimer (mGluR2/7) (P35400 35-915): as the sequence (P35400 35-915 K319C) above, with C285K counted along it
The next assay deals with T3, SNAP-mGluR2(F756D) (Rattus norvegicus, UniProt P31421, F756D).
T3 construct: HA (N); expressed in transfected cells; host or cells: HEK293 / HEK293T
T3 sequence (P31421 19-872 F756D): as the sequence (P31421 19-872) above, with F738D counted along it
Nature of the assay: Whole-cell patch clamp of GIRK1 current, SNAP-mGluR2(F756D) expressed alone. The assay is classed as cell-based. The following applies: BGAG12 labeled, 380 nm.
From the text: We explored this further by examining trans-activation, whereby binding of ligand to one subunit activates G-protein interaction in the partner subunit[46],[47]. To specifically activate only the mGluR2 subunit of the mGluR2/7 heterodimer, we selectively attached a photoswitched tethered ligand to mGluR2.
as §2
On the technique in general: In patch-clamp work, channel activity is measured electrically.

Assay [4] addresses T4, SNAP-mGluR2(F756D)/mGluR7 heterodimer (Rattus norvegicus, UniProt P31421+P35400, F756D).
T4 construct: HA (N); expressed in transfected cells; host or cells: HEK293 / HEK293T
Nature of the assay: Whole-cell patch clamp of GIRK1 current, trans-activation in SNAP-mGluR2(F756D)/mGluR7. The assay is classed as cell-based.
From the text: We explored this further by examining trans-activation, whereby binding of ligand to one subunit activates G-protein interaction in the partner subunit[46],[47]. To specifically activate only the mGluR2 subunit of the mGluR2/7 heterodimer, we selectively attached a photoswitched tethered ligand to mGluR2. […] SNAP-mGluR2(F756D) was co-expressed with wild-type mGluR7 along with the GIRK1 channel.
as §2

The target of assay [5] is SNAP-mGluR2/SNAP-mGluR2 homodimer (mGluR2/2) (Rattus norvegicus, UniProt P31421). Nature of the assay: smFRET on isolated immune-purified SNAP-mGluR2/2 dimers. The note with it: 10 nM DCG-IV.
Sequence of SNAP-mGluR2/SNAP-mGluR2 homodimer (mGluR2/2) (P31421 19-872): as the sequence (P31421 19-872) above
From the text: (§3) Receptors expressed in HEK293T cells were labeled with a mixture of SNAP-reactive donor and acceptor fluorophores, detergent solubilized, immune-purified and tethered by biotinylated secondary antibodies at low density to coverslips that were passivated with a lawn of polyethylene glycol[13]. We used single-molecule FRET (smFRET) in order to measure the absolute FRET levels and dynamic changes associated with ligand-induced conformational changes in the LBDs. We imaged the donor and acceptor dyes using total internal reflection fluorescence (TIRF) microscopy[13],[31]
Assay [6] has as its target SNAP-mGluR7/SNAP-mGluR7 homodimer (mGluR7/7) (Rattus norvegicus, UniProt P35400). Nature of the assay: smFRET on isolated immune-purified SNAP-mGluR7/7 dimers.
From the text: as §3

Several values for one entry are separate records, joined by “and”; a condition that tells them apart may be missing. Equal entries are not always repeated. Entries after “also recorded” stand apart in the source; their conditions may differ.

T4 sequence (P31421 19-872 F756D): as the sequence (P31421 19-872) above, with F738D counted along it
T4 sequence (P35400 35-915): as the sequence (P35400 35-915 K319C) above, with C285K counted along it
Sequence of SNAP-mGluR7/SNAP-mGluR7 homodimer (mGluR7/7) (P35400 35-915): as the sequence (P35400 35-915 K319C) above, with C285K counted along it
T1 sequence (P35400 35-915 K319C): as the sequence (P35400 35-915 K319C) above

Regarding `NC(CC(CCC(=O)Nc1ccc(N=Nc2ccc(NC(=O)CN3C(=O)C=CC3=O)cc2)cc1)C(=O)O)C(=O)O` (mixture of isomers) [D-MAG-0, maleimide-azobenzene-glutamate], in assay [1] (trans D-MAG-0), the “stabilization of activated conformation, fold more effective than saturating free glutamate” value is on record as “approximately 5 fold”. In addition, the “occupancy of the activated low FRET state” value in assay [1] (trans D-MAG-0 on both subunits) was ~ 50%. In addition, the “time in the activated low-FRET state” value in assay [2] is ~ 90%.

Regarding `CCc1nc2c(o1)CC(c1ccc(C)cc1C)CC2=O` (centres unmarked) [ADX71743], in assay [3], the “effect on smFRET distribution” value is “narrowed the smFRET distribution and shifted it to the right”.

For `Nc1nc(OCc2ccc(CNC(=O)CCc3cn(CCOCCOCCOCCOCCOCCOCCOCCOCCOCCOCCOCCOCCC(=O)NCC(=O)Nc4ccc(/N=N/c5ccc(NC(=O)CCC[C@@H](C[C@H](N)C(=O)O)C(=O)O)cc5)cc4)nn3)cc2)c2nc[nH]c2n1` [BGAG12, benzylguanine azobenzene glutamate], the photocurrent result on SNAP-mGluR2(F756D) is “no photocurrent”.

As to `N[C@H](C(=O)O)C1[C@@H](C(=O)O)[C@@H]1C(=O)O` (some centres unmarked) [DCG-IV], the “Norm. (1 nM DCG-IV), Over 20% Photo” value in assay [4] (1 nM DCG-IV, summary of cells Over 20% Photo) was 0.04748. Besides, the “Norm. (1 nM DCG-IV), Under 15% Photo” value in assay [4] (1 nM DCG-IV, summary of cells Under 15% Photo) stood at 0.01667. Further, the “Norm. (10 nM DCG-IV), Over 20% Photo” value in assay [4] (10 nM DCG-IV, summary of cells Over 20% Photo) came out at 0.2749. In addition, the “Norm. (10 nM DCG-IV), Under 15% Photo” value in assay [4] (10 nM DCG-IV, summary of cells Under 15% Photo) was determined as 0.22. Further, in assay [4] (100 nM DCG-IV, summary of cells Over 20% Photo), the “Norm. (100 nM DCG-IV), Over 20% Photo” value was determined as 0.5816. Moreover, the “Norm. (100 nM DCG-IV), Under 15% Photo” value in assay [4] (100 nM DCG-IV, summary of cells Under 15% Photo) came to 0.3011. The “Norm. (1 uM DCG-IV)” value in assay [4] (1 uM DCG-IV normalised to 1 mM Glu, single cells) was 0.9403 and 0.9452 and 0.7554 and 0.9507. Besides, the “Norm. (1 uM DCG-IV), Over 20% Photo” value in assay [4] (1 uM DCG-IV, summary of cells Over 20% Photo) came to 0.9454. Besides, the “Norm. (1 uM DCG-IV), Under 15% Photo” value in assay [4] (1 uM DCG-IV, summary of cells Under 15% Photo) is recorded as 0.7554. Besides, the “Norm. (10 uM DCG-IV)” value in assay [4] (10 uM DCG-IV normalised to 1 mM Glu, single cells) was determined as 1. In addition, the “Current, 10 uM DCG-IV” value in assay [4] (10 uM DCG-IV, single cells) is reported as -498.53. Moreover, the “Norm. (10 uM DCG-IV), Over 20% Photo” value in assay [4] (10 uM DCG-IV, summary of cells Over 20% Photo) is on record as 1. Besides, in assay [4] (patch clamp, foot of the relation), the “DCG-IV GIRK concentration-response relation compared to mGluR2/2” value is reported as “left-shifted; also recorded: more sensitive”. In assay [5], the “occupancy of the activated conformation” value is ~ 5%. In assay [3] (10 nM DCG-IV), the “activated conformation occupancy, fold greater than mGluR2/2” value was ~ 5 fold and the “occupancy of the activated conformation” value was ~ 25%.

As for `N[C@@H](CCP(=O)(O)C(O)c1ccc(OCC(=O)O)cc1)C(=O)O` (some centres unmarked) [LSP4-2022], in assay [6] (20 μM LSP4-2022), the smFRET traces result was “frequent transitions to the low FRET activated conformation”. Further, the “normalized low FRET area (Supplemental Figure 2a), mGluR7 LSP4” value was determined as 1 in assay [6] (agonist 0.003 (M)); 0.8692 in assay [6] (agonist 1.00E-03 (M)); 0.03798 in assay [6] (agonist 1.00E-06 (M)); 0.02088 in assay [6] (agonist 1.00E-07 (M)); 0.3163 in assay [6] (agonist 2.00E-05 (M)). In addition, the receptor occupancy at 1000 µM in assay [6] (read-out: occupancy of the activated conformation) is more than 50%. Moreover, the receptor occupancy at 3000 µM in assay [6] (read-out: occupancy of the low FRET conformation) is approximately 65%. The “efficacy, fold greater than that of glutamate” value in assay [6] (smFRET) was “at least 6 fold”. The “shift of smFRET distribution” value in assay [3] (1 µM LSP4-2022) is listed as “slightly more than half-way toward the activated low FRET state”. The activation result in assay [3] (1 mM LSP4-2022) is recorded as “almost complete”. The “apparent affinity of mGluR7 subunit, fold higher than when partnered with another mGluR7” value in assay [3] (smFRET) is recorded as “approximately 1000 fold”.

Consider `Clc1cccc(Cl)c1/C(=C/n1cncn1)OC1CCCCCC1` [Ro 64-5229], for which the “effect on smFRET distribution” value in assay [3] was “narrowed the smFRET distribution and shifted it to the right”.

Regarding MNI-137, the “effect on smFRET distribution” value in assay [3] is “narrowed the smFRET distribution and shifted it to the right”.

Source of the values: PMC6895203, “Conformational pathway provides unique sensitivity to a synaptic mGluR” (Nature Communications, 2019).
